Assay results taken from patent US20230381332A1, “Deuterated Camptothecin Derivative And Antibody-drug Conjugate Thereof” (Baili-Bio (Chengdu) Pharmaceutical Co., Ltd., priority 2020, published 2023).

test: Clearance half-life test of deuterated camptothecin drugs in liver microsomes; type: in vitro ADME, Human; details: human liver microsomes 1.0 mg/ml, 10 μM test article, NADPH 1.0 mM, 37° C., 120 minutes
Procedure: Embodiment 36: Clearance Half-Life Test of Deuterated Camptothecin Drugs
Human liver microsomes (supplied by Xenotech))
1. Add the working solution of the test substance to the liver microsome working solution and pre-incubate at 37° C. for 5 minutes, then add the prepared NADPH working solution and mix well. Make the reaction volume of the incubation system reach 200 μL, and the liver microsomes concentration in the incubation system is 1.0 mg/mL, the test substance concentration is 10 μM. The incubation tube is incubated in a water bath at 37° C. for 120 minutes. In the incubation system of the test substance, total organic solvents (DMSO and acetonitrile or other organic The minimum volume content of the solvent) is <1%, and the DMSO content is <0.1%. All operations are performed on wet ice.
2. For the blank sample, add the corresponding volume of phosphate buffer solution instead of the working solution of the test substance. For the 0 min sample, first add the stop solution and the liver microsome solution and mix well, and then add the working solution of the test substance.
3. At the end of the incubation, add 400 μL of stop solution to terminate the reaction, and remove the incubation sample from the water bath.
4. After the reaction was terminated, the sample was shaken and centrifuged at a centrifugal force of 4700 g for 10 minutes. After centrifugation, 200 μL of the supernatant was pipetted into a 96-well plate and directly used for LC-MS analysis to analyze metabolites and main drug ratio.

Compound | Ratio of main drug after incubation
CC[C@@]1(O)C(=O)OCc2c1cc1n(c2=O)Cc2c-1nc1cc(F)c(C)c3c1c2[C@@H](NC(=O)CO)CC3 [Compound 2, reference compound] | 65%
[2H]C(O)C(=O)N[C@H]1CCc2c(C)c(F)cc3nc4c(c1c23)Cn1c-4cc2c(c1=O)COC(=O)[C@]2(O)CC (stereo partly drawn) [D-D1] | 98%

same assay, conditions: human, 120 min, 10 μM

Compound | Ratio of main drug after incubation
CC[C@@]1(O)C(=O)OCc2c1cc1n(c2=O)Cc2c-1nc1cc(F)c(C)c3c1c2[C@@H](NC(=O)[C@H](C)O)CC3 [Compound 3, reference compound] | 56%
CC[C@@]1(O)C(=O)OCc2c1cc1n(c2=O)Cc2c-1nc1cc(F)c(C)c3c1c2[C@@H](NC(=O)[C@H](O)C(F)(F)F)CC3 [Compound 5, reference compound] | 73%
CC[C@@]1(O)C(=O)OCc2c1cc1n(c2=O)Cc2c-1nc1cc(F)c(C)c3c1c2[C@@H](NC(=O)[C@@H](O)C1CC1)CC3 [Compound 7, reference compound] | 85%
[2H]C(C)(O)C(=O)N[C@H]1CCc2c(C)c(F)cc3nc4c(c1c23)Cn1c-4cc2c(c1=O)COC(=O)[C@]2(O)CC (stereo partly drawn) [D-D3] | 97%
[2H]C(O)(C(=O)N[C@H]1CCc2c(C)c(F)cc3nc4c(c1c23)Cn1c-4cc2c(c1=O)COC(=O)[C@]2(O)CC)C(F)(F)F (stereo partly drawn) [D-D5] | 99%
[2H]C(O)(C(=O)N[C@H]1CCc2c(C)c(F)cc3nc4c(c1c23)Cn1c-4cc2c(c1=O)COC(=O)[C@]2(O)CC)C1CC1 (stereo partly drawn) [D-D7] | 96%
[2H]C([2H])([2H])C([2H])(O)C(=O)N[C@H]1CCc2c(C)c(F)cc3nc4c(c1c23)Cn1c-4cc2c(c1=O)COC(=O)[C@]2(O)CC (stereo partly drawn) [D-D11] | 96%
[2H]C([2H])([2H])N(C(=O)CO)[C@@H]1CCc2c(C)c(F)cc3nc4c(c1c23)Cn1c-4cc2c(c1=O)COC(=O)[C@]2(O)CC [D-D15] | 91%
[2H]C([2H])([2H])C(O)C(=O)N(C)[C@@H]1CCc2c(C)c(F)cc3nc4c(c1c23)Cn1c-4cc2c(c1=O)COC(=O)[C@]2(O)CC (stereo partly drawn) [D-D19] | 97%
